Target: T1, X-box-binding protein 1 (Homo sapiens, UniProt P17861)
T1 sequence (P17861 whole entry): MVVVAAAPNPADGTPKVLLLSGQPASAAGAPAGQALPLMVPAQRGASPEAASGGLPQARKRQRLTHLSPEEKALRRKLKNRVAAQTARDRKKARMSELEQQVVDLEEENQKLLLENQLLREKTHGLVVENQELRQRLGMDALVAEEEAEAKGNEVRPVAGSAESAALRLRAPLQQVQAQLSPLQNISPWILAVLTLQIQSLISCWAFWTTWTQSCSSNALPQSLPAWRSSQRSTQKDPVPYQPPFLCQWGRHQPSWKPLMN
Assay: Transactivation of XBP1 (unknown origin) transfected in rat IEC-6 cells after 48 hrs by dual luciferase reporter gene assay

`C1=C2c3cc4c(cc3CCN2Cc2c1ccc1c2OCO1)OCO4` gave an EC50 of 2.3 nM.

With `CC(=O)CC1c2c(ccc3c2OCO3)C=C2c3cc4c(cc3CCN21)OCO4` (stereo not drawn) the EC50 was 220 nM.

Compound `C=C(C(C)=O)c1c2c3c(ccc2c(C)c2[n+]1CCc1cc4c(cc1-2)OCO4)OCO3` has an EC50 of 210 nM.
